Active and inactive are the calls of the source. The rule behind the calls is not given here.
Key:
A-375 = test: cells; settings: Homo sapiens, A-375, 72 h
Description: Antiproliferative activity against human A375 cells expressing BRAF V600E mutant after 72 hrs by Cell titer-glo assay

[1] = molecular target: Dual specificity mitogen-activated protein kinase kinase 1 (Homo sapiens, UniProt Q02750); test: Inhibition of MEK1 (unknown origin) after 2 hrs by fluorescence assay
HCT-116 [2] = test: Antiproliferative activity against human HCT116 cells expressing KRAS G13D mutant; format: functional, cell-based
[3] = Terminal half life in rat at 1 mg/kg, iv and 1 mg/kg, po; format: ADME, organism-based; settings: in vivo, read-out: beta t1/2 (converted)
A549 [4] = settings: Homo sapiens
Description: Antitumor activity against human A549 cells xenografted in nude mouse assessed as tumor growth inhibition at 1 mg/kg, po administered every other day

[5] = Oral bioavailability in rat at 1 mg/kg; format: ADME, organism-based; settings: in vivo
[6] = Terminal half life in mouse; format: ADME, organism-based; settings: in vivo, read-out: beta t1/2 (converted)
LoVo = test: Antiproliferative activity against human LoVo cells; format: functional, cell-based
[7] = Volume of distribution at steady state in rat at 1 mg/kg, iv and 1 mg/kg, po; format: ADME, organism-based; settings: in vivo, read-out: Vdss
[8] = Terminal half life in dog; format: ADME, organism-based, Canis lupus familiaris; settings: in vivo, read-out: beta t1/2 (converted)
MIA PaCa-2 = test: Antiproliferative activity against human MIAPaCa2 cells; format: functional, cell-based
A549 [9] = settings: Homo sapiens; remark: listed apart in the source
Description: Antitumor activity against human A549 cells xenografted in nude mouse assessed as tumor growth inhibition at 1 mg/kg, po qd

[10] = Blood clearance in rat at 1 mg/kg, iv and 1 mg/kg, po; format: ADME, organism-based; settings: whole blood
HCT-116 [11] = test: Ratio of AZD6244 IC50 to compound IC50 for human HCT116 cells expressing KRAS G13D mutant; format: functional
[12] = Ratio of AUC in mouse brain to AUC in mouse plasma at 5 mg/kg, iv up to 3 hrs; format: ADME, organism-based; set-up: dose 5 mg/kg, route intravenous; settings: read-out: Ratio AUC
A549 [13] = test: Antiproliferative activity against human A549 cells; format: functional, cell-based
[14] = Blood clearance in rat at 1 mg/kg, iv; format: ADME, organism-based; set-up: dose 1 mg/kg, route intravenous; settings: whole blood
[15] = Drug metabolism in hepatocytes (unknown origin) assessed as demethylation of the sulfamide moiety; format: ADME, cell-based, Hepatocyte
[16] = Terminal half life in rat at 1 mg/kg, iv; format: ADME, organism-based; set-up: dose 1 mg/kg, route intravenous; settings: in vivo, read-out: beta t1/2 (converted)
[17] = Drug metabolism in liver microsomes (unknown origin) assessed as demethylation of the sulfamide moiety; format: ADME, Microsome
[18] = Oral bioavailability in rat; format: ADME, organism-based; settings: in vivo
Caco-2 = test: Efflux ratio of permeability in human Caco2 cells relative to control; format: ADME, cell-based
[19] = Terminal half life in rat at 0.3 mg/kg, iv and 0.6 mg/kg, po; format: ADME, organism-based; settings: in vivo, read-out: beta t1/2 (converted)
[20] = Volume of distribution at steady state in rat at 0.3 mg/kg, iv and 0.6 mg/kg, po; format: ADME, organism-based; settings: in vivo, read-out: Vdss
[21] = Oral bioavailability in rat at 0.6 mg/kg; format: ADME, organism-based; settings: in vivo
[22] = Blood clearance in rat at 0.3 mg/kg, iv and 0.6 mg/kg, po; format: ADME, organism-based; settings: whole blood
[23] = Blood clearance in rat at 0.5 mg/kg, iv and 5 mg/kg, po; format: ADME, organism-based; settings: whole blood
[24] = Volume of distribution at steady state in rat at 0.5 mg/kg, iv and 5 mg/kg, po; format: ADME, organism-based; settings: in vivo, read-out: Vdss
[25] = Oral bioavailability in rat at 5 mg/kg; format: ADME, organism-based; settings: in vivo
[26] = Terminal half life in rat at 0.5 mg/kg, iv and 5 mg/kg, po; format: ADME, organism-based; settings: in vivo, read-out: beta t1/2 (converted)
[27] = Terminal half life in rat at 0.5 mg/kg, iv and 1 mg/kg, po; format: ADME, organism-based; settings: in vivo, read-out: beta t1/2 (converted)
[28] = Blood clearance in rat at 0.5 mg/kg, iv and 1 mg/kg, po; format: ADME, organism-based; settings: whole blood
[29] = Volume of distribution at steady state in rat at 0.5 mg/kg, iv and 1 mg/kg, po; format: ADME, organism-based; settings: in vivo, read-out: Vdss
A549 [30] = settings: Homo sapiens; remark: listed apart in the source
Description: Antitumor activity against human A549 cells xenografted in nude mouse assessed as tumor growth inhibition at 3 mg/kg, po qd

Chain of Dual specificity mitogen-activated protein kinase kinase 1 (Q02750 whole entry): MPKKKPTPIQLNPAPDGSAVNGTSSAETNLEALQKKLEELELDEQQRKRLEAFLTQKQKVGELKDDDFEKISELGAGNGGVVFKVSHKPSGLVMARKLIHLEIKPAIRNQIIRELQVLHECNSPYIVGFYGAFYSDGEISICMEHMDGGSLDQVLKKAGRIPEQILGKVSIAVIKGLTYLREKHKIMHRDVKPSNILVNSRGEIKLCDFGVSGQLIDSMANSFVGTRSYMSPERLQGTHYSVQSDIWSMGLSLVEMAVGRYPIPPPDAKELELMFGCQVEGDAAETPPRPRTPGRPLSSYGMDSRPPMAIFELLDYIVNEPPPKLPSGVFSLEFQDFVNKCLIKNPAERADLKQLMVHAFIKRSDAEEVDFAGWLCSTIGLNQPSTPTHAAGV

| SMILES | IC50 (A-375) | IC50 [1] | IC50 (HCT-116 [2]) | other results |
| --- | --- | --- | --- | --- |
| NC(=O)c1c(Nc2ccc(I)cc2F)cc(F)cc1Oc1cccc(CS(N)(=O)=O)c1 | 37 nM | 32 nM | 3490 nM | – |
| CN(C)S(=O)(=O)N1CCC[C@H]1COc1cc(F)cc(Nc2ccc(I)cc2F)c1C(N)=O | 1120 nM | 1000 nM | – | – |
| NC(=O)c1c(Nc2ccc(I)cc2F)cc(F)cc1Oc1cccnc1 | 141 nM | 76 nM | 4180 nM | – |
| NC(=O)c1c(Nc2ccc(I)cc2F)cc(F)cc1OCC[C@@H](O)Cn1cccn1 | 151 nM | 13 nM | 2070 nM | – |
| CN1CCC[C@H]1COc1cc(F)cc(Nc2ccc(I)cc2F)c1C(N)=O | 973 nM | – | – | – |
| NC(=O)c1c(Nc2ccc(I)cc2F)cc(F)cc1Oc1cccc(NS(N)(=O)=O)c1 | 4 nM | 14 nM | 180 nM | half-life [3]: 32 h; TGI (A549 [4]): Active; bioavailability [5]: 62%; half-life [6]: 34 h; IC50 (LoVo): 175 nM; Vd [7]: 2 L/kg; half-life [8]: 110 h; IC50 (MIA PaCa-2): 23 nM; TGI (A549 [9]): Active; clearance [10]: 0.5 mL/min/kg; Ratio IC50 (HCT-116 [11]): >=10; Kp at 3 h [12]: < 0.02; IC50 (A549 [13]): 132 nM |
| CN(C)S(=O)(=O)Nc1cccc(Oc2cc(F)cc(Nc3ccc(I)cc3F)c2C(N)=O)c1 | 18 nM | 21 nM | 155 nM | clearance [14]: 35 mL/min/kg; Drug metabolism [15]: Active; half-life [16]: 2.2 h; Drug metabolism [17]: Active; bioavailability [18]: 55% |
| CC(C)(O)C(O)CCOc1cc(F)cc(Nc2ccc(I)cc2F)c1C(N)=O (stereo unspecified) | 40 nM | 43 nM | 2450 nM | – |
| NC(=O)c1c(Nc2ccc(I)cc2F)cc(F)cc1Oc1ccccc1 | 408 nM | 99 nM | – | – |
| CC(O)(CO)CCOc1cc(F)cc(Nc2ccc(I)cc2F)c1C(N)=O (stereo unspecified) | 240 nM | – | – | – |
| NC(=O)c1c(Nc2ccc(I)cc2F)cc(F)cc1OC[C@@H]1CCCN1S(N)(=O)=O | 172 nM | 73 nM | 3040 nM | – |
| NC(=O)c1c(Nc2ccc(I)cc2F)cc(F)cc1OCC[C@@H](O)Cn1ccnc1 | 98 nM | 16 nM | 1250 nM | fold change (FC) (Caco-2): 10; half-life [19]: 8.4 h; Vd [20]: 10.3 L/kg; bioavailability [21]: 20%; clearance [22]: 9.67 mL/min/kg; Kp at 3 h [12]: 0.04 |
| CS(=O)(=O)Nc1cccc(Oc2cc(F)cc(Nc3ccc(I)cc3F)c2C(N)=O)c1 | 23 nM | 21 nM | 3800 nM | – |
| COc1cc(F)cc(Nc2ccc(I)cc2F)c1C(N)=O | 354 nM | 74 nM | – | – |
| CC(=O)Nc1ccc(Oc2cc(F)cc(Nc3ccc(I)cc3F)c2C(N)=O)cc1 | 808 nM | 539 nM | – | – |
| NC(=O)c1c(Nc2ccc(I)cc2F)cc(F)cc1OC[C@H](O)CCO | 350 nM | 63 nM | – | – |
| CCS(=O)(=O)N1CCC[C@H]1COc1cc(F)cc(Nc2ccc(I)cc2F)c1C(N)=O | 323 nM | – | – | – |
| NC(=O)c1c(Nc2ccc(I)cc2F)cc(F)cc1OC[C@@H]1CCCN1 | 124 nM | 26 nM | 3030 nM | – |
| Cn1cnc2c(F)c(Nc3ccc(Br)cc3Cl)c(C(=O)NOCCO)cc21 [SELUMETINIB] | 31 nM | – | 3100 nM | clearance [23]: 1 mL/min/kg; Vd [24]: 0.2 L/kg; bioavailability [25]: 14%; IC50 (LoVo): 2830 nM; IC50 (MIA PaCa-2): 142 nM; half-life [26]: 3.8 h; Kp at 3 h [12]: < 0.02; IC50 (A549 [13]): 1750 nM |
| CNS(=O)(=O)Nc1cccc(Oc2cc(F)cc(Nc3ccc(I)cc3F)c2C(N)=O)c1 | 16 nM | – | 103 nM | – |
| NC(=O)c1c(Nc2ccc(I)cc2F)cc(F)cc1OCC[C@H](O)CO | 240 nM | – | – | – |
| CCS(=O)(=O)Nc1cccc(Oc2cc(F)cc(Nc3ccc(I)cc3F)c2C(N)=O)c1 | < 30 nM | 15 nM | 287 nM | – |
| NC(=O)c1c(Nc2ccc(I)cc2F)cc(F)cc1Oc1cccc(NS(=O)(=O)N2CCCC2)c1 | 28 nM | 21 nM | 412 nM | – |
| NC(=O)c1c(Nc2ccc(I)cc2F)cc(F)cc1Oc1ccc2oc(=O)[nH]c2c1 | 35 nM | 36 nM | 4510 nM | – |
| CC(C)C(=O)Nc1cccc(Oc2cc(F)cc(Nc3ccc(I)cc3F)c2C(N)=O)c1 | 192 nM | 48 nM | 8810 nM | – |
| NC(=O)c1c(Nc2ccc(I)cc2F)cc(F)cc1Oc1ccc2cn[nH]c2c1 | 221 nM | 54 nM | – | – |
| CC(=O)Nc1cccc(Oc2cc(F)cc(Nc3ccc(I)cc3F)c2C(N)=O)c1 | 50 nM | – | 2290 nM | – |
| NC(=O)c1c(Nc2ccc(I)cc2F)cc(F)cc1OCC[C@@H](O)CO | 148 nM | – | 3400 nM | half-life [27]: 2.4 h; bioavailability [5]: 70%; clearance [28]: 24.8 mL/min/kg; Vd [29]: 4.4 L/kg; Kp at 3 h [12]: 0.73 |
| O=C(NOC[C@H](O)CO)c1ccc(F)c(F)c1Nc1ccc(I)cc1F [MIRDAMETINIB] | – | – | – | half-life [27]: 5.4 h; TGI (A549 [30]): Active; bioavailability [5]: 104%; clearance [28]: 8.33 mL/min/kg; Vd [29]: 1.7 L/kg |
| CC(C)S(=O)(=O)Nc1cccc(Oc2cc(F)cc(Nc3ccc(I)cc3F)c2C(N)=O)c1 | 17 nM | 18 nM | 459 nM | – |

— ChEMBL document CHEMBL2375237, “Optimization of allosteric MEK inhibitors. Part 1: Venturing into underexplored SAR territories” (Bioorg Med Chem Lett, 2013)
